From US20040044079A1, “Methods and compositions for weight control” (The IAMS Company, priority 2002, published 2004)

Legend:
[1] = incorporated into a high fat diet fed to mice; U.S. Pat. No. 6,054,480; cited from earlier work
[2] = Weekly body weight / weight loss of dogs on treatment diets; assay type: in vivo; conditions: for weight loss: phase II, compared with control diet, FIGS. 3 and 4
Method: (§1) In phase I of the study, 80 beagle and mongrel dogs were fed a weight gain diet (36% protein, 26% fat by dry weight). The dogs were allowed to eat as much as they wished for 16 weeks. Weekly weight gain and daily food intake were measured for each dog. In phase II, the 20 dogs that were the poorest weight […] eliminated from the study. The 60 remaining dogs were randomly assigned to one of the four treatment groups. The treatment diets were the following: The dogs were given the treatment diets for 12 weeks. During this time the dogs were allowed to eat as much as they wished. Daily food intake and weekly body weight were measured. Body composition measurements were also taken, including fat, lean body mass, bone mineral content (BMC), and bone mineral density (BMD). These measurements help to determine the cause of weight loss-for instance, whether it is due to an increase in satiety and therefore reduced food intake, or an increase in thermogenesis. The measurements also allow a determination of whether weight loss results from a reduction in lean body mass or a loss of fat, or a combination of both.

[3] = Average body condition scores of dogs on treatment diets; assay type: in vivo; conditions: for Average Body Condition Score: score 1 thin to 5 obese (Table 1); for Average Body Condition Score % Change: Day 0 to Day 84
Method: as §1, with “both. [table]” for “both.”

[4] = Daily food intake of dogs on treatment diets; assay type: in vivo; conditions: experimental period of phase II, compared among the four diets, FIGS. 1 and 2
Method: as §1

[5] = Whole body composition of overweight dogs fed treatment diets for 12 weeks; assay type: in vivo; conditions: for Area: absolute data; for Area (relative data) / BMD (relative data) / Lean + BMC (relative data) / Total (relative data) / BMC (relative data) / Fat (relative data) / Lean (relative data): relative change, beginning to end of phase II
Method: as §1, with “following: Control. Similar to EUKANUBA REDUCED FAT dry dog food, consisting of approximately 19% protein and 10% fat on a dry weight basis, with an additional 3% poultry fat to achieve a total fat content of 13%. Free fatty acid mix. Identical to the control diet, but with 3% free fatty acids in place of the 3% poultry fat. The free fatty acid was technical grade linoleic acid. Ethyl esters of fatty acid mix. Identical to control diet, but with 3% ethyl ester of fatty acid in place of the 3% poultry fat. The ethyl ester used was ethyl oleate. Lotus leaf extract. Identical to the control, but with an additional 0.3% extract of lotus leaf. Lotus leaf extract has been used in China to promote human weight loss. It is purported to help induce a sense of satiety and reduce food consumption.” for “following:”

[6] = second Lean column (body share)

For `CCCCCCCCCCCCCC(=O)O` [myristic acid], the “effect on body weight” value [1] is given as “caused weight loss or reduction of weight gain in the mice”.

For `CCCCCCCC/C=C\CCCCCCCC(=O)OCC` [T × 2, ethyl oleate], the average weight ([2]; 10th-12th weeks of phase II, compared with control group) was “average weight increased above that of the control group”, the weight loss [2] was “lost more weight than the control group for the first 9 weeks of phase II” and the “Average Body Condition Score” value ([3]; Day 0) was 4.0. For the same molecule, the “Average Body Condition Score % Change” value [3] was −7.5%, the “Average Body Condition Score” value ([3]; Day 84) was 3.7 and the food intake [4] was “ate intermediate amounts, slightly more than the control diet”. The “BMC (bone mineral content)” value ([5]; Day 0, absolute data) was 253.62 g, the Fat ([5]; Day 0, absolute data) was 5956.12 g and the Lean ([5]; Day 0, absolute data) was 9667.31 g. For the same molecule, the Lean + BMC ([5]; Day 0, absolute data) was 9920 g, the Total ([5]; Day 0, absolute data) was 15877.02 g and the BMC ([5]; Day 0, share of whole body) was 1.61%. It also gave a Fat ([5]; Day 0, share of whole body) of 36.77%, a Lean ([5]; Day 0, share of whole body) of 61.63% and an Area ([5]; Day 0, start of phase II) of 395.54 cm^2. The “BMC (bone mineral content)” value ([5]; Day 84, absolute data) was 229.74 g, the Fat ([5]; Day 84, absolute data) was 4723.12 g and the Lean ([5]; Day 84, absolute data) was 9837.15 g. The “Lean + BMC” value ([5]; Day 84, absolute data) was 10066.89 g, the Total ([5]; Day 84, absolute data) was 14790.01 g and the Area ([5]; Day 84, end of phase II) was 362.26 cm^2. For the same molecule, the BMC ([5]; Day 84, share of whole body) was 1.57%, the Fat ([5]; Day 84, share of whole body) was 31.44% and the Lean ([5]; Day 84, share of whole body) was 66.99%. For the same molecule, the “Area (relative data)” value [5] was −7.99%, the “BMD (relative data)” value [5] was −0.58% and the “Lean + BMC (relative data)” value [5] was −4.69%. For the same molecule, the “Total (relative data)” value [5] was −6.56%, the “BMC (relative data)” value ([5]; first BMC column) was −8.58% and the “Fat (relative data)” value ([5]; first Fat column (mass)) was −18.59%. For the same molecule, the “Lean (relative data)” value ([5]; first Lean column (mass)) was 2.06%, the “BMC (relative data)” value ([5]; second BMC column (body share)) was −2.39% and the “Fat (relative data)” value ([5]; second Fat column (body share)) was −13.43%. The “Lean (relative data)” value [5, 6] was 9.61%.

In the case of `CCCCC/C=C\C/C=C\CCCCCCCC(=O)O` [T × 1, linoleic acid], the weight loss [2] is reported as “generally greatest”, the “Average Body Condition Score” value ([3]; Day 0) is reported as 4.1 and the “Average Body Condition Score % Change” value [3] is reported as −19.5%. The “Average Body Condition Score” value ([3]; Day 84) was 3.3, the food intake [4] was “ate intermediate amounts, slightly more than the control diet” and the “BMC (bone mineral content)” value ([5]; Day 0, absolute data) was 263.95 g. The Fat ([5]; Day 0, absolute data) was 5772.09 g, the Lean ([5]; Day 0, absolute data) was 9840.21 g and the “Lean + BMC” value ([5]; Day 0, absolute data) was 10104.15 g. The Total ([5]; Day 0, absolute data) was 15876.27 g, the BMC ([5]; Day 0, share of whole body) was 1.67% and the Fat ([5]; Day 0, share of whole body) was 35.74%. The Lean ([5]; Day 0, share of whole body) was 62.58%, the Area ([5]; Day 0, start of phase II) was 402.07 cm^2 and the “BMC (bone mineral content)” value ([5]; Day 84, absolute data) was 257.27 g. The Fat ([5]; Day 84, absolute data) was 4109.94 g, the Lean ([5]; Day 84, absolute data) was 9607.27 g and the “Lean + BMC” value ([5]; Day 84, absolute data) was 9864.54 g. The Total ([5]; Day 84, absolute data) was 13974.49 g, the Area ([5]; Day 84, end of phase II) was 387.39 cm^2 and the BMC ([5]; Day 84, share of whole body) was 1.84%. For the same molecule, the Fat ([5]; Day 84, share of whole body) was 29.22%, the Lean ([5]; Day 84, share of whole body) was 68.94% and the “Area (relative data)” value [5] was −3.98%. The “BMD (relative data)” value [5] was 1.15%, the “Lean + BMC (relative data)” value [5] was −2.38% and the “Total (relative data)” value [5] was −11.75%. The “BMC (relative data)” value ([5]; first BMC column) was −3.06%, the “Fat (relative data)” value ([5]; first Fat column (mass)) was −28.22% and the “Lean (relative data)” value ([5]; first Lean column (mass)) was −2.34%. For the same molecule, the “BMC (relative data)” value ([5]; second BMC column (body share)) was 10.16%, the “Fat (relative data)” value ([5]; second Fat column (body share)) was −18.59% and the “Lean (relative data)” value [5, 6] was 10.84%.
